Source: patent US20200071327A1, “Prodrugs for the Treatment of Disease” (Oppilan Pharma Ltd., priority 2017, published 2020)

Molecular target: T1, full-length human S1P1 (Homo sapiens, UniProt P21453)
T1 construct: CHO-K1 Gαqi5 cells expression full-length human S1P1; expressed in transfected cells; host or cells: CHO-K1 Gαqi5 cells (membrane preparation)
Assay: GTPγS binding assay (scintillation proximity assay) on S1P1 membranes
Assay type: biochemical
Details: membranes from CHO-K1 Gαqi5 cells expressing full-length human S1P1; GTPγ35S; 60 minutes incubation
Method: S1P1 membrane is prepared from CHO-K1 Gαqi5 cells expression full-length human S1P1. Scintillation proximity assay (SPA) is performed by incubating membranes, GTPγ^35S, and compound 11 at various concentrations for 60 minutes. Wheat germ agglutinin-coated SPA beads are added and incubated for 60 minutes before centrifugation and scintillation counting.

T1 sequence (P21453 whole entry): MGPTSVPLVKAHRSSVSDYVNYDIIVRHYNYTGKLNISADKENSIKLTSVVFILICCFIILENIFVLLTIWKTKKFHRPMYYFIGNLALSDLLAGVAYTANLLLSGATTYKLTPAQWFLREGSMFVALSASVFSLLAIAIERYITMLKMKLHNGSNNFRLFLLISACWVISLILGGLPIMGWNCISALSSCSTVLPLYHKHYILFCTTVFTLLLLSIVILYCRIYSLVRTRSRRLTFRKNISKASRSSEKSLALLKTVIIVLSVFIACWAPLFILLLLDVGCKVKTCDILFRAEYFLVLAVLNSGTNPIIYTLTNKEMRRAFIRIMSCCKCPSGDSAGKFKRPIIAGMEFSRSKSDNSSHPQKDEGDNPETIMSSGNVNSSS

EC50: < 1000 nM
SMILES: O=C1CC[C@@H](Oc2cc(Cl)c(-c3noc(-c4cn5cc(C(F)(F)F)cc(Cl)c5n4)n3)cc2Cl)CN1 [compound 11, (R)-5-(2,5-diehloro-4-(5-(8-chloro-6-(trifluoromethyl)imidazo[1,2-a]pyridin-2-yl)-1,2,4-oxadiazol-3-yl)phenoxy)piperidin-2-one]
